{
  "source": "patent US12544375B2",
  "about": "“Small molecule therapeutic for parkinson's disease paired with a biomarker of therapeutic activity” (The Board of Trustees of the Leland Stanford Junior …, priority 2019, dated 2026)",
  "key": {"PD fibroblasts": {"tested_on": "PD fibroblasts", "test": "Mitophagy at 14 hrs after CCCP in PD fibroblasts (Western blotting and immunocytochemistry)", "type": "cell-based, human", "settings": "14 hrs after CCCP treatment", "experimental": "(§1) FIG. 8. Related to FIG. 2-4. Miro1 Reducer in Human Cell and Fly Models. (A) Fibroblasts from Healthy-1 and PD-2 were treated, lysed, and blotted as indicated. Band intensities are normalized to those of GAPDH from the same blots and compared to “Healthy-1, no treatment”. n=4 independent experiments. (B) Fibroblasts from PD-2 were treated and immunostained as indicated. The intensity was quantified for each cell across 264-320 cells from 3 independent experiments, compared to “no treatment”. (C) Fibroblasts were treated, immunoprecipitated (IPed) with anti-Miro1, and blotted as indicated. Similar results were observed twice. (D) Similar as in (C), fibroblasts were treated as indicated, and IPed with anti-Miro1. The GTPase activity of the IPed Miro1 protein was measured as described in Method. […] The MitoSox intensity was quantified for each cell across 106-161 cells from 3 coverslips. […] The TMRM intensity was measured for each cell across 48-60 cells from 3 independent experiments, and expressed as a fraction of the mean of “Healthy-1, no treatment”. […] The movement (the intensity of non-yellow) was quantified for each cell as described in (Tsai et al., 2014) across 22-31 cells from 3 transfections. […] (1) Left: The percentage of TH-positive iPSC-derived neurons out of total cells (Dapi-positive) is calculated after immunocytochemistry under 20× as described in FIG. 3. […]"}, "[1]": {"tested_on": "healthy-1 or PD-2 fibroblasts", "test": "Baseline mitochondrial reactive oxygen species, MitoSox staining", "type": "cell-based, human", "settings": "10 μM for 30 hrs", "experimental": "as §1"}, "PINK1 null flies": {"tested_on": "PINK1 null flies", "test": "Non-progressive phenotypes of PINK1 null flies (ATP levels, thoracic indentation, wing posture, flying ability)", "type": "in vivo, fly", "settings": "PINK1 null flies fed from adult onset with 2.5 μM", "experimental": "as §1"}},
  "data": [
    {"smiles": "O=C(Nc1ccc(Nc2cc(-n3ccnc3)ncn2)cc1)Nc1cccc(F)c1", "note": "[Miro1 Reducer]", "values": [
      {"measurement": "delayed mitophagy phenotype", "setting": "PD fibroblasts", "result": "rescued the delayed mitophagy phenotype"},
      {"measurement": "baseline mitochondrial reactive oxygen species levels (MitoSox)", "setting": "[1]", "result": "did not affect"},
      {"measurement": "non-progressive phenotypes (lowered ATP levels, thoracic indentation, abnormal wing posture, defective flying ability)", "setting": "PINK1 null flies", "result": "did not improve"}
    ]}
  ]
}
